Reference: patent publication US20240132521A1, “COMPOUNDS AND METHODS FOR MODULATING HER2” (Iambic Therapeutics, Inc., priority 2022, published 2024)

What was measured:
BaF3_HER2WT cells = BaF3_HER2WT cells (Homo sapiens, UniProt P04626); test: Cell growth inhibition assay (CellTiterGlo), BaF3_HER2WT; assay type: cell-based; details: 3-day treatment, CellTiterGlo, read-out: Cell growth inhibition activity, HER2 WT
BaF3_EGFRWT cells = BaF3_EGFRWT cells (Homo sapiens, UniProt P00533); test: Cell growth inhibition assay (CellTiterGlo), BaF3_EGFRWT; assay type: cell-based; details: 3-day treatment, CellTiterGlo, read-out: Cell growth inhibition activity, EGFR WT
BaF3_EGFRWT cells, sequence (P00533 whole entry, stated change not applied): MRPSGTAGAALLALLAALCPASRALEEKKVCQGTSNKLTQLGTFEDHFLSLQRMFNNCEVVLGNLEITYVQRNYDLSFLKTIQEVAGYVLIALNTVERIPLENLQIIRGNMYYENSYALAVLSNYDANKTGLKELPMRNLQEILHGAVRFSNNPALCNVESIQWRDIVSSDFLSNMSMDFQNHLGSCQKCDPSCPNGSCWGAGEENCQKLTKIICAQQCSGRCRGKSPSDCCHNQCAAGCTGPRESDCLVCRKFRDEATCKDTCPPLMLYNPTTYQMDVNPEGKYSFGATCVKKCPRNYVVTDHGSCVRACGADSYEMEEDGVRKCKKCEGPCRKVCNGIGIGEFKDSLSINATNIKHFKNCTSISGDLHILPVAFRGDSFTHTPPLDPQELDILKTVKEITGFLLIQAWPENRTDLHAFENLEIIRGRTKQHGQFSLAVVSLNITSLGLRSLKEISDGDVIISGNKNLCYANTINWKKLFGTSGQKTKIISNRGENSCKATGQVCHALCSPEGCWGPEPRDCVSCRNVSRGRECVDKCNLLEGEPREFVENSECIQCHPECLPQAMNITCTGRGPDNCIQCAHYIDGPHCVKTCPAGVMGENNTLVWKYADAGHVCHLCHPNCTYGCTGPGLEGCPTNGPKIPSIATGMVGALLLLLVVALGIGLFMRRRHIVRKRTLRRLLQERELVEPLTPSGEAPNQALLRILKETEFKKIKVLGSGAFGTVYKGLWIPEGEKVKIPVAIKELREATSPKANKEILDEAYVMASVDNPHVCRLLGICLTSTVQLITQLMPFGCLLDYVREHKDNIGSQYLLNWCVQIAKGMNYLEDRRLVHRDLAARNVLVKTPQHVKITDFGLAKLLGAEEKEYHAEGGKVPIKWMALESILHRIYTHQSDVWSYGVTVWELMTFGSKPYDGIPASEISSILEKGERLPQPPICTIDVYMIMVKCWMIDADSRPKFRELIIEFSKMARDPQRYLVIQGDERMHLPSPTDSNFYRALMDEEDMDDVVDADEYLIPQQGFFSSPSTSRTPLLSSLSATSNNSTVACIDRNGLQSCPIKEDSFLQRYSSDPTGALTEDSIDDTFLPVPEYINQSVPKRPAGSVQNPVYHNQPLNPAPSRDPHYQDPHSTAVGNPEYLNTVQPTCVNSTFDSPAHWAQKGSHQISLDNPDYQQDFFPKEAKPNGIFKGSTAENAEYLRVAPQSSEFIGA

[1] = target: T1, ERBB2-A775_G776insYVMA (ERBB2YVMA) (Homo sapiens, UniProt P04626, INS775YVMA); test: HotSpot radiometric kinase activity assay, ERBB2YVMA; details: biochemical activity, 20 nM ERBB2YVMA, 10 μM 33P-ATP, 2 hours, read-out: HER2 - YVMA IC50
T1 construct: purchased SignalChem E27-13BG
T1 sequence (P04626 with tags, fused parts or gaps INS775YVMA limits assumed): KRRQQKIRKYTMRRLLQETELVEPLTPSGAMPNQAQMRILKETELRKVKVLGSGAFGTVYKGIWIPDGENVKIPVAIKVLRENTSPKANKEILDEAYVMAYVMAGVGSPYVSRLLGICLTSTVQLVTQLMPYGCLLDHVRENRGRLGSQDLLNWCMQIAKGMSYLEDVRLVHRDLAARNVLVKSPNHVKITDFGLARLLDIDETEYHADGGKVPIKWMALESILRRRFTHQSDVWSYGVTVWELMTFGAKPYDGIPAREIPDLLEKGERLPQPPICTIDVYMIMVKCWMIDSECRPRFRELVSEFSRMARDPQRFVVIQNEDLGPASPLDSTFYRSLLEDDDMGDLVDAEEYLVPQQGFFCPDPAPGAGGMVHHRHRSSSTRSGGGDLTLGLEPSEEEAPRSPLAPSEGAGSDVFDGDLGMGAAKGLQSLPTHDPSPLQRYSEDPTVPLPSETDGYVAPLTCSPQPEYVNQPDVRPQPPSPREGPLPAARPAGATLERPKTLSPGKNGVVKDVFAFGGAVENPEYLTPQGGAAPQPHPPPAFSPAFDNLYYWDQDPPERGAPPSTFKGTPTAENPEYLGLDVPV
Protocol: The purpose of the wtERBB2, ERBB2-A775_G776insYVMA (ERBB2YVMA), wtEGFR biochemical assay was to evaluate the inhibition (% inhibition and IC50 values) of the small molecule inhibitors by using the “HotSpot” radiometric kinase activity assay. HotSpot assays monitor the production of kinase substrate by the radioactive gamma phosphate of adenosine triphosphate (33P-ATP) during biochemical reactions. HotSpot assays was performed in steps upon completion of the kinase reaction: deposition of a reaction mixture aliquot onto P81 ion exchange paper, extensive washing of the aforementioned P81 paper using phosphoric acid to remove unbound radiolabeled 33P-ATP from the P81 paper, and finally visualization and quantification of the dried P81 paper utilizing a phosphoimager. […] Typical reaction solutions (10 μL, final reaction volume) contained the following buffer conditions: 20 mM Hepes (pH 7.5), 10 mM MgCl2, 1 mM EGTA, 0.01% Brij35, 0.02 mg/mL BSA, 0.1 mM Na3VO4, 2 mM DTT, 1% DMSO. The assay was primed by preparing a fresh 0.2 mg/mL solution of pEY (Sigma Cat: P7244) substrate in the reaction buffer and supplementing that solution with […] of MnCl2 as substrate cofactor (Sigma Cat: M9522). The kinase of interest was then added to the solution at the appropriate concentration (30 nM wtERBB2 from, or 20 nM ERBB2YVMA, or 4 nM wtEGFR) and gently mixed prior to delivery of compound in 100% DMSO by acoustic dispensing (Beckman Echo550). Compound, Kinase, and substrate were allowed to incubate for 20 min at room temperature prior to the initiation of the reaction by addition of 33P-ATP (PerkinElmer Cat: NEG602, final conc 10 μM). […] IC50 determinations were made from a plot of kinase activity as a function of inhibitor concentration fit to the 4-parameter IC50 equation with the enzyme concentration held constant using GraphPad Prism (San Diego).

BaF3_HER2YVMA cells = BaF3_HER2YVMA cells (Homo sapiens, UniProt P04626, DUP772-775, cells depend on it); test: Cell growth inhibition assay (CellTiterGlo), BaF3_HER2YVMA; assay type: cell-based; details: 3-day treatment, CellTiterGlo, read-out: Cell growth inhibition activity, HER2 - YVMA
BaF3_HER2YVMA cells, sequence (P04626 with tags, fused parts or gaps DUP772-775): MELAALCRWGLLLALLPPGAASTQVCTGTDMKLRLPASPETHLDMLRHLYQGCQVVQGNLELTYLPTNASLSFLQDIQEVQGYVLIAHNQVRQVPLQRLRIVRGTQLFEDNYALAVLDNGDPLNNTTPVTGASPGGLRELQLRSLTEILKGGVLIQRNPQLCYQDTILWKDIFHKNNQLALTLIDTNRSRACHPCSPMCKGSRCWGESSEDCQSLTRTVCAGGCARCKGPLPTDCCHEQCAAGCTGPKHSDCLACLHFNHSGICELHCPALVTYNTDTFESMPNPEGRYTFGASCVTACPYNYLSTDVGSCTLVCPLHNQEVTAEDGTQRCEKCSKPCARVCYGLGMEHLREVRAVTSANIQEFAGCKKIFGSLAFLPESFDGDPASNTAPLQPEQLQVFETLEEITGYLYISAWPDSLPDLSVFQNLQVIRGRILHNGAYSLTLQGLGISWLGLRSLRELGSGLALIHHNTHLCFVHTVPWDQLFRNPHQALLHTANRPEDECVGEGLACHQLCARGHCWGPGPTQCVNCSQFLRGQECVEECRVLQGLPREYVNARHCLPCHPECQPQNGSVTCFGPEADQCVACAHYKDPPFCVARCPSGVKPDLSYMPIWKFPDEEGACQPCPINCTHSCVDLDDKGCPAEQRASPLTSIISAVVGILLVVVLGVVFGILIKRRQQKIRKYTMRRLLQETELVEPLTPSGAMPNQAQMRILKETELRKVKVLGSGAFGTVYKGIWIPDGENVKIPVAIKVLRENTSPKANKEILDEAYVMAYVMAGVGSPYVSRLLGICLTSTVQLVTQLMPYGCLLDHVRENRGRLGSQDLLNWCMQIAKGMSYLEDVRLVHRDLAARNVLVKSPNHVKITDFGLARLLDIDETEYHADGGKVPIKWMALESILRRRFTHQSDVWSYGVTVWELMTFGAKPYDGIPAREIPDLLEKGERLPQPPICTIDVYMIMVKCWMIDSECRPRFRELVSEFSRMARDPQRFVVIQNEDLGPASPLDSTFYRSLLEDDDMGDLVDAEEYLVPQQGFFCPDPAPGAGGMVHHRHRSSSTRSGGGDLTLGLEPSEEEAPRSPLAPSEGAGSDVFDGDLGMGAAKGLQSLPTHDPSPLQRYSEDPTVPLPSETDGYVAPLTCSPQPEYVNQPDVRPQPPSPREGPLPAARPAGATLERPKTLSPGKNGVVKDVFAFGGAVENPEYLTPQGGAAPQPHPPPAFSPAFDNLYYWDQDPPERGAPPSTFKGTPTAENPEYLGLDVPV

BaF3_HER2WT cells, sequence (P04626 whole entry, change not shown): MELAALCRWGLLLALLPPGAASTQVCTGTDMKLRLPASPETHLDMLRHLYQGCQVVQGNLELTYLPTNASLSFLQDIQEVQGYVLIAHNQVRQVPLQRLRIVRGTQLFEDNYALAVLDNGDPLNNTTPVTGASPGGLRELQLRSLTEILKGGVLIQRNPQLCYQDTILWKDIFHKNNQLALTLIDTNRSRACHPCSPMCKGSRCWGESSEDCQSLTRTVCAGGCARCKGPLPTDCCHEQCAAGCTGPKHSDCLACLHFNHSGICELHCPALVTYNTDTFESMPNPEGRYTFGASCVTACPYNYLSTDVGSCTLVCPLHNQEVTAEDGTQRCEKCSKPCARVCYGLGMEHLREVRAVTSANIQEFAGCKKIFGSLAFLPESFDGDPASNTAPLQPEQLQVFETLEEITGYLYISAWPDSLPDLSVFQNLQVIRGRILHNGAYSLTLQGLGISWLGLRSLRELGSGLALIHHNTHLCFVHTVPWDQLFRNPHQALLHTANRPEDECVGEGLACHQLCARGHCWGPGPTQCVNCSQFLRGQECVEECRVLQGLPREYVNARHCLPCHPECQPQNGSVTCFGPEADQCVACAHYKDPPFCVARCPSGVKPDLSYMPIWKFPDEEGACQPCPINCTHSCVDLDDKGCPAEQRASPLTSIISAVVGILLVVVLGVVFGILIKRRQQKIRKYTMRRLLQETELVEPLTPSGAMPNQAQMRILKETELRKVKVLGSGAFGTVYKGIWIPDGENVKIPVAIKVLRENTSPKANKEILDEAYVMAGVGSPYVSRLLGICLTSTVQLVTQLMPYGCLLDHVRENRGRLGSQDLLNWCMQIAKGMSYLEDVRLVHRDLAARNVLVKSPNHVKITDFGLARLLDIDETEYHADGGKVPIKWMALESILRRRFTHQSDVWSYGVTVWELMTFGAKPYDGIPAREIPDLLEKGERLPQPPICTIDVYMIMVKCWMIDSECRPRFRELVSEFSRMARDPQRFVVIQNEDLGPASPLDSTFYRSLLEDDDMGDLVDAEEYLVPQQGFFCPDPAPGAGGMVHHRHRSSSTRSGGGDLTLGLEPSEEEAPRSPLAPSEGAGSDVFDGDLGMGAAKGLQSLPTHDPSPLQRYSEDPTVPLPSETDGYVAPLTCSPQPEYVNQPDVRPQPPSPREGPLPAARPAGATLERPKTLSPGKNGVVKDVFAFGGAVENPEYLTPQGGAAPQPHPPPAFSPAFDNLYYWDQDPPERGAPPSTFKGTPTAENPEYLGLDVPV

GI50 (BaF3_HER2WT cells) [nM] | GI50 (BaF3_EGFRWT cells) [nM] | IC50 [1] [nM] | GI50 (BaF3_HER2YVMA cells) [nM] | Compound
< 200 | 1500 to 5000 | < 200 | < 200 | Cc1cc(Nc2ncnn3ccc(C4CN(C(=O)/C=C/CN(C)C)C4)c23)ccc1Oc1ccn2ncnc2c1 [Example 1, (E)-1-(3-(4-((4-([1,2,4]triazolo[1,5-a]pyridin-7-yloxy)-3-methylphenyl)amino)pyrrolo[2,1-f][1,2,4]triazin-5-yl)azetidin-1-yl)-4-(dimethylamino)but-2-en-1-one]
< 200 | 1500 to 5000 | < 200 | < 200 | C=CC(=O)N1CC(n2cc(-c3ccn4ncnc(Nc5ccc(Oc6ccn7ncnc7c6)c(C)c5)c34)cn2)C1 [Example 2, 1-(3-(4-(4-((4-([1,2,4]triazolo[1,5-a]pyridin-7-yloxy)-3-methylphenyl)amino)pyrrolo[2,1-f][1,2,4]triazin-5-yl)-1H-pyrazol-1-yl)azetidin-1-yl)prop-2-en-1-one]
< 200 | 500 to 1500 | < 200 | < 200 | C=CC(=O)N1CCN(c2ccn3ncnc(Nc4ccc(Oc5ccn6ncnc6c5)c(C)c4)c23)CC1 [Example 6, 1-(4-(4-((4-([1,2,4]triazolo[1,5-a]pyridin-7-yloxy)-3-methylphenyl)amino)pyrrolo[2,1-f][1,2,4]triazin-5-yl)piperazin-1-yl)prop-2-en-1-one]
< 200 | 200 to 500 | < 200 | < 200 | C=CC(=O)N1CCC(c2ccn3ncnc(Nc4ccc(Oc5ccn6ncnc6c5)c(C)c4)c23)CC1 [Example 7, 1-(4-(4-((4-([1,2,4]triazolo[1,5-a]pyridin-7-yloxy)-3-methylphenyl)amino)pyrrolo[2,1-f][1,2,4]triazin-5-yl)piperidin-1-yl)prop-2-en-1-one]
< 200 | 500 to 1500 | < 200 | < 200 | C=CC(=O)N1CCCN(c2ccn3ncnc(Nc4ccc(Oc5ccn6ncnc6c5)c(C)c4)c23)CC1 [Example 8, 1-(4-(4-((4-([1,2,4]triazolo[1,5-a]pyridin-7-yloxy)-3-methylphenyl)amino)pyrrolo[2,1-f][1,2,4]triazin-5-yl)-1,4-diazepan-1-yl)prop-2-en-1-one]
200 to 500 | 1500 to 5000 | < 200 | 500 to 1500 | C=CC(=O)N1CC(c2ccn(-c3ccn4ncnc(Nc5ccc(Oc6ccn7ncnc7c6)c(C)c5)c34)n2)C1 [Example 10, 1-(3-(1-(4-((4-([1,2,4]triazolo[1,5-a]pyridin-7-yloxy)-3-methylphenyl)amino)pyrrolo[2,1-f][1,2,4]triazin-5-yl)-1H-pyrazol-3-yl)azetidin-1-yl)prop-2-en-1-one]
< 200 | 1500 to 5000 | < 200 | < 200 | C=CC(=O)N1CCCC(c2ccn3ncnc(Nc4ccc(Oc5ccn6ncnc6c5)c(C)c4)c23)C1 (centres unmarked) [Example 12, 1-(3-(4-((4-([1,2,4]triazolo[1,5-a]pyridin-7-yloxy)-3-methylphenyl)amino)pyrrolo[2,1-f][1,2,4]triazin-5-yl)piperidin-1-yl)prop-2-en-1-one]
< 200 | 1500 to 5000 | < 200 | < 200 | Cc1cc(Nc2ncnn3ccc(C4CN(C(=O)/C=C/CN5CCCCC5)C4)c23)ccc1Oc1ccn2ncnc2c1 [Example 94, (E)-1-(3-(4-((4-([1,2,4]triazolo[1,5-a]pyridin-7-yloxy)-3-methylphenyl)amino)pyrrolo[2,1-f][1,2,4]triazin-5-yl)azetidin-1-yl)-4-(piperidin-1-yl)but-2-en-1-one]
< 200 | 1500 to 5000 | – | < 200 | CO[C@H]1CN(C/C=C/C(=O)N2CC(c3ccn4ncnc(Nc5ccc(Oc6ccc7c(c6)ncn7C)c(C)c5)c34)C2)C[C@H]1OC [Example 165, (E)-4-((3R,4S)-3,4-dimethoxypyrrolidin-1-yl)-1-(3-(4-((3-methyl-4-((1-methyl-1H-benzo[d]imidazol-5-yl)oxy)phenyl)amino)pyrrolo[2,1-f][1,2,4]triazin-5-yl)azetidin-1-yl)but-2-en-1-one]
< 200 | 1500 to 5000 | – | < 200 | CO[C@@H]1CN(C/C=C/C(=O)N2CC(c3ccn4ncnc(Nc5ccc(Oc6ccc7c(c6)ncn7C)c(C)c5)c34)C2)C[C@H]1OC [Example 166, (E)-4-((3R,4R)-3,4-dimethoxypyrrolidin-1-yl)-1-(3-(4-((3-methyl-4-((1-methyl-1H-benzo[d]imidazol-5-yl)oxy)phenyl)amino)pyrrolo[2,1-f][1,2,4]triazin-5-yl)azetidin-1-yl)but-2-en-1-one]
< 200 | 1500 to 5000 | – | < 200 | CO[C@H]1CN(C/C=C/C(=O)N2CCC(c3ccn4ncnc(Nc5ccc(Oc6ccc7c(c6)ncn7C)c(C)c5)c34)CC2)C[C@H]1OC [Example 167, (E)-4-((3R,4S)-3,4-dimethoxypyrrolidin-1-yl)-1-(4-(4-((3-methyl-4-((1-methyl-1H-benzo[d]imidazol-5-yl)oxy)phenyl)amino)pyrrolo[2,1-f][1,2,4]triazin-5-yl)piperidin-1-yl)but-2-en-1-one]
< 200 | 1500 to 5000 | – | < 200 | CO[C@@H]1CN(C/C=C/C(=O)N2CCC(c3ccn4ncnc(Nc5ccc(Oc6ccc7c(c6)ncn7C)c(C)c5)c34)CC2)C[C@H]1OC [Example 168, (E)-4-((3R,4R)-3,4-dimethoxypyrrolidin-1-yl)-1-(4-(4-((3-methyl-4-((1-methyl-1H-benzo[d]imidazol-5-yl)oxy)phenyl)amino)pyrrolo[2,1-f][1,2,4]triazin-5-yl)piperidin-1-yl)but-2-en-1-one]
< 200 | 1500 to 5000 | – | < 200 | CO[C@H]1CN(C/C=C/C(=O)N2CCC(c3ccn4ncnc(Nc5ccc(Oc6ccn7ncnc7c6)c(C)c5)c34)CC2)C[C@H]1OC [Example 169, (E)-1-(4-(4-((4-([1,2,4]triazolo[1,5-a]pyridin-7-yloxy)-3-methylphenyl)amino)pyrrolo[2,1-f][1,2,4]triazin-5-yl)piperidin-1-yl)-4-((3R,4S)-3,4-dimethoxypyrrolidin-1-yl)but-2-en-1-one]
< 200 | 1500 to 5000 | – | < 200 | CO[C@@H]1CN(C/C=C/C(=O)N2CCC(c3ccn4ncnc(Nc5ccc(Oc6ccn7ncnc7c6)c(C)c5)c34)CC2)C[C@H]1OC [Example 170, (E)-1-(4-(4-((4-([1,2,4]triazolo[1,5-a]pyridin-7-yloxy)-3-methylphenyl)amino)pyrrolo[2,1-f][1,2,4]triazin-5-yl)piperidin-1-yl)-4-((3R,4R)-3,4-dimethoxypyrrolidin-1-yl)but-2-en-1-one]
1500 to 5000 | 1500 to 5000 | – | 1500 to 5000 | Cc1cc(Nc2ncnn3ccc(C4(F)CCN(C(=O)/C=C/CN(C)C)CC4)c23)ccc1Oc1ccn2ncnc2c1 [Example 175, (E)-1-(4-(4-((4-([1,2,4]triazolo[1,5-a]pyridin-7-yloxy)-3-methylphenyl)amino)pyrrolo[2,1-f][1,2,4]triazin-5-yl)-4-fluoropiperidin-1-yl)-4-(dimethylamino)but-2-en-1-one]
< 200 | 1500 to 5000 | – | < 200 | Cc1cc(Nc2ncnn3ccc(C4CCN(C(=O)/C=C/CN(C)C)CC4(F)F)c23)ccc1Oc1ccn2ncnc2c1 (centres unmarked) [Example 176, (E)-1-(4-(4-((4-([1,2,4]triazolo[1,5-a]pyridin-7-yloxy)-3-methylphenyl)amino)pyrrolo[2,1-f][1,2,4]triazin-5-yl)-3,3-difluoropiperidin-1-yl)-4-(dimethylamino)but-2-en-1-one]
< 200 | 1500 to 5000 | – | < 200 | CNC/C=C/C(=O)N1CCC(c2ccn3ncnc(Nc4ccc(Oc5ccn6ncnc6c5)c(C)c4)c23)CC1 [Example 177, (E)-1-(4-(4-((4-([1,2,4]triazolo[1,5-a]pyridin-7-yloxy)-3-methylphenyl)amino)pyrrolo[2,1-f][1,2,4]triazin-5-yl)piperidin-1-yl)-4-(methylamino)but-2-en-1-one]
1500 to 5000 | > 5000 | – | > 5000 | Cc1cc(Nc2ncnn3ccc(C(=O)NCCCN(C)C)c23)ccc1N [Example 181, 4-((4-amino-3-methylphenyl)amino)-N-(3-(dimethylamino)propyl)pyrrolo[2,1-f][1,2,4]triazine-5-carboxamide]
